# Patent publication US7491794B2, “Macrocyclic compounds as inhibitors of viral replication” (Intermune, Inc., priority 2003, dated 2009)
# Read-outs that look alike come from different tables or passages of the source.
# Assays:
# [1] = system: HCV sub-genomic replicon, GS4.3; assay: Quantitation by ELISA of NPTII in the HCV sub-genomic replicon, GS4.3, Section B; format: cell-based; settings: Hepatitis C virus; GS4.3 cells, 72 h incubation; read-out: Replicon EC50
# Method in brief: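 NPTII marker protein in lysates was quantified by ELISA read at 450 nm after 72 h inhibitor exposure (3-fold series, final DMSO 1%, G418-free medium) of HuH-7 cells stably harbouring the subgenomic HCV replicon. Values relative to DMSO-treated controls; 4-parameter curves gave EC50.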
# NS3-NS4A protease = molecular target: T1, NS3-NS4A protease (Hepatitis C virus genotype 1a, UniProt P27958); assay: NS3-NS4A protease assay (NS3 inhibition assay, RETS1 substrate), Section B; format: biochemical
# T1 construct: Recombinant E. coli or Baculovirus full-length NS3 was diluted to 3.33 μM with assay buffer; made in house; host or cells: E. coli or baculovirus (BV) system
# T1 sequence (P27958 1027-1657): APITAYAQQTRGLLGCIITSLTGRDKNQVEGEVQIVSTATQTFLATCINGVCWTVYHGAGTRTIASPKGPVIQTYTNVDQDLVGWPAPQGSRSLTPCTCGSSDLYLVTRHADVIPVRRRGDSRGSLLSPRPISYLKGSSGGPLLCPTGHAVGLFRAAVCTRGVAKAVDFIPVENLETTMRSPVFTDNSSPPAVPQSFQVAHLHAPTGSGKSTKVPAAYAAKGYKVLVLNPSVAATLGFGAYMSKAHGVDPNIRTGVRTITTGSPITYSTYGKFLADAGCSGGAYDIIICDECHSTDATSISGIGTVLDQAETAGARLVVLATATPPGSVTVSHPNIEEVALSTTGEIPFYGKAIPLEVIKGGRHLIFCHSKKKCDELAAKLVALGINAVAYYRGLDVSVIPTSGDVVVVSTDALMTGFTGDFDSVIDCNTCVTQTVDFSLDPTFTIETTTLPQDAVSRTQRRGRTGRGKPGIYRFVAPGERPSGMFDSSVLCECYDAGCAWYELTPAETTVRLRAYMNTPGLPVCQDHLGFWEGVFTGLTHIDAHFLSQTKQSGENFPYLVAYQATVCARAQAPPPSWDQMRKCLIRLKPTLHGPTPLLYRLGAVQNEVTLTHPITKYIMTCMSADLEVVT
# Method in brief: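 Kinetic fluorescence read (335 nm excitation, 495 nm emission, 30 min) of RETS1 cleavage by NS3/NS4A-2 complex, 2 nM E. coli or 3 nM baculovirus NS3, after 10 min room-temperature compound pre-incubation. Four-parameter-fit IC50s converted to Ki by Cheng–Prusoff, Ki=IC50/(1+[S]/Km).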
SMILES,EC50 [1] [nM],IC50 (NS3-NS4A protease; read-out: NS3-NS4A IC50) [nM],IC50 (NS3-NS4A protease) [nM]
"COc1cccc(CC(=O)N[C@H]2CCCCC/C=C\[C@@H]3C[C@@]3(C(=O)NS(=O)(=O)C3CC3)NC(=O)[C@@H]3C[C@@H](OC(=O)N4Cc5cccc(F)c5C4)CN3C2=O)c1 [AR00340178, (1S,4R,6S,14S,18R)-4-Fluoro-1,3-dihydro-isoindole-2-carboxylic acid 4-cyclopropanesulfonylaminocarbonyl-14-[2-(3-methoxy-phenyl)-acetylamino]-2,15-dioxo-3,16-diaza-tricyclo[14.3.0.0^4,6]nonadec-7-en-18-yl ester]",< 100,< 100,–
"O=C(Cc1ccccc1)N[C@H]1CCCCC/C=C\[C@@H]2C[C@@]2(C(=O)NS(=O)(=O)C2CC2)NC(=O)[C@@H]2C[C@@H](OC(=O)N3Cc4cccc(F)c4C3)CN2C1=O [AR00340188, (1S,4R,6S,14S,18R)-4-Fluoro-1,3-dihydro-isoindole-2-carboxylic acid 4-cyclopropanesulfonylaminocarbonyl-2,15-dioxo-14-phenylacetylamino-3,16-diaza-tricyclo[14.3.0.0^4,6]nonadec-7-en-18-yl ester]",< 1000,< 100,–
"O=C(N[C@H](C(=O)N[C@H]1CCCCC/C=C\[C@@H]2C[C@@]2(C(=O)NS(=O)(=O)C2CC2)NC(=O)[C@@H]2C[C@@H](OC(=O)N3Cc4cccc(F)c4C3)CN2C1=O)C1CCCCC1)c1cnccn1 [AR00340303, (1S,4R,6S,14S,18R)-4-Fluoro-1,3-dihydro-isoindole-2-carboxylic acid 14-{2-cyclohexyl-2-[(pyrazine-2-carbonyl)-amino]-acetylamino}-4-cyclopropanesulfonylaminocarbonyl-2,15-dioxo-3,16-diaza-tricyclo[14.3.0.0^4,6]nonadec-7-en-18-yl ester]",< 1000,–,< 100
"CC(C)(C)OC(=O)N[C@H]1CCCCC/C=C\[C@@H]2C[C@@]2(C(=O)NS(=O)(=O)C(F)(F)F)NC(=O)[C@@H]2C[C@@H](OC(=O)N3Cc4ccccc4C3)CN2C1=O [AR00340479, (1S,4R,6S,14S,18R)-1,3-Dihydro-isoindole-2-carboxylic acid 14-tert-butoxycarbonylamino-2,15-dioxo-4-trifluoromethanesulfonylaminocarbonyl-3,16-diaza-tricyclo[14.3.0.0^4,6]nonadec-7-en-18-yl ester]",< 100,< 100,–
"CC(C)(C)OC(=O)N[C@H]1CCCCC/C=C\[C@@H]2C[C@@]2(C(=O)NS(=O)(=O)C2CC2)NC(=O)[C@@H]2C[C@@H](OC(=O)N3Cc4ccc(N5CCOCC5)cc4C3)CN2C1=O [AR00340494, (1S,4R,6S,14S,18R)-5-Morpholin-4-yl-1,3-dihydro-isoindole-2-carboxylic acid 14-tert-butoxycarbonylamino-4-cyclopropanesulfonylaminocarbonyl-2,15-dioxo-3,16-diaza-tricyclo[14.3.0.0^4,6]nonadec-7-en-18-yl ester]",< 100,< 100,–
"CN1CCN(c2ccc3c(c2)CN(C(=O)O[C@@H]2C[C@H]4C(=O)N[C@]5(C(=O)NS(=O)(=O)C6CC6)C[C@H]5/C=C\CCCCC[C@H](NC(=O)OC(C)(C)C)C(=O)N4C2)C3)CC1 [AR00340495, (1S,4R,6S,14S,18R)-5-(4-Methyl-piperazin-1-yl)-1,3-dihydro-isoindole-2-carboxylic acid 14-tert-butoxycarbonylamino-4-cyclopropanesulfonylaminocarbonyl-2,15-dioxo-3,16-diaza-tricyclo[14.3.0.0^4,6]nonadec-7-en-18-yl ester]",< 100,< 100,–
"CC(C)(C)OC(=O)N[C@H]1CCCCC/C=C\[C@@H]2C[C@@]2(C(=O)NS(=O)(=O)C2CC2)NC(=O)[C@@H]2C[C@@H](OC(=O)N3Cc4ccc(Br)cc4C3)CN2C1=O [AR00340526, (1S,4R,6S,14S,18R)-5-Bromo-1,3-dihydro-isoindole-2-carboxylic acid 14-tert-butoxycarbonylamino-4-cyclopropanesulfonylaminocarbonyl-2,15-dioxo-3,16-diaza-tricyclo[14.3.0.0^4,6]nonadec-7-en-18-yl ester]",< 100,< 100,–
"CC(C)Nc1ccc2c(c1)CN(C(=O)O[C@@H]1C[C@H]3C(=O)N[C@]4(C(=O)NS(=O)(=O)C5CC5)C[C@H]4/C=C\CCCCC[C@H](NC(=O)OC(C)(C)C)C(=O)N3C1)C2 [AR00341649, (1S,4R,6S,14S,18R)-5-Isopropylamino-1,3-dihydro-isoindole-2-carboxylic acid 14-tert-butoxycarbonylamino-4-cyclopropanesulfonylaminocarbonyl-2,15-dioxo-3,16-diaza-tricyclo[14.3.0.0^4,6]nonadec-7-en-18-yl ester]",< 100,< 100,–
"CC(C)(C)OC(=O)N[C@H]1CCCCC/C=C\[C@@H]2C[C@@]2(C(=O)NS(=O)(=O)C2CC2)NC(=O)[C@@H]2C[C@@H](OC(=O)N3Cc4ccc(OCCOC(=O)N5CCOCC5)cc4C3)CN2C1=O [AR00345032, (1S,4R,6S,14S,18R)-5-[2-(Morpholine-4-carbonyloxy)-ethoxy]-1,3-dihydro-isoindole-2-carboxylic acid 14-tert-butoxycarbonylamino-4-cyclopropanesulfonylaminocarbonyl-2,15-dioxo-3,16-diaza-tricyclo[14.3.0.0^4,6]nonadec-7-en-18-yl ester]",< 100,< 100,–
"CC(C)(C)OC(=O)N[C@H]1CCCCC/C=C\[C@@H]2C[C@@]2(C(=O)NS(=O)(=O)C2CC2)NC(=O)[C@@H]2C[C@@H](OC(=O)N3Cc4ccc(OCCCN5CCOCC5)cc4C3)CN2C1=O [AR00345075, (1S,4R,6S,14S,18R)-5-(3-Morpholin-4-yl-propoxy)-1,3-dihydro-isoindole-2-carboxylic acid 14-tert-butoxycarbonylamino-4-cyclopropanesulfonylaminocarbonyl-2,15-dioxo-3,16-diaza-tricyclo[14.3.0.0^4,6]nonadec-7-en-18-yl ester]",< 1000,< 100,–
"CC(C)(C)OC(=O)N[C@H]1CCCCC/C=C\[C@@H]2C[C@@]2(C(=O)NS(=O)(=O)C2CC2)NC(=O)[C@@H]2C[C@@H](OC(=O)N3Cc4ccc(OCCN5CCOCC5)cc4C3)CN2C1=O [AR00345090, (1S,4R,6S,14S,18R)-5-(2-Morpholin-4-yl-ethoxy)-1,3-dihydro-isoindole-2-carboxylic acid 14-tert-butoxycarbonylamino-4-cyclopropanesulfonylaminocarbonyl-2,15-dioxo-3,16-diaza-tricyclo[14.3.0.0^4,6]nonadec-7-en-18-yl ester]",< 100,< 100,–
"CC(C)NCCOc1ccc2c(c1)CN(C(=O)O[C@@H]1C[C@H]3C(=O)N[C@]4(C(=O)NS(=O)(=O)C5CC5)C[C@H]4/C=C\CCCCC[C@H](NC(=O)OC(C)(C)C)C(=O)N3C1)C2 [AR00345094, (1S,4R,6S,14S,18R)-5-(2-Isopropylamino-ethoxy)-1,3-dihydro-isoindole-2-carboxylic acid 14-tert-butoxycarbonylamino-4-cyclopropanesulfonylaminocarbonyl-2,15-dioxo-3,16-diaza-tricyclo[14.3.0.0^4,6]nonadec-7-en-18-yl ester]",< 100,< 100,–
"CN(C)CCOc1ccc2c(c1)CN(C(=O)O[C@@H]1C[C@H]3C(=O)N[C@]4(C(=O)NS(=O)(=O)C5CC5)C[C@H]4/C=C\CCCCC[C@H](NC(=O)OC(C)(C)C)C(=O)N3C1)C2 [AR00345095, (1S,4R,6S,14S,18R)-5-(2-Dimethylamino-ethoxy)-1,3-dihydro-isoindole-2-carboxylic acid 14-tert-butoxycarbonylamino-4-cyclopropanesulfonylaminocarbonyl-2,15-dioxo-3,16-diaza-tricyclo[14.3.0.0^4,6]nonadec-7-en-18-yl ester]",< 100,< 100,–
"CC(C)(C)OC(=O)N[C@H]1CCCCC/C=C\[C@@H]2C[C@@]2(C(=O)NS(=O)(=O)C2CC2)NC(=O)[C@@H]2C[C@@H](OC(=O)N3Cc4ccc(OCCn5ccnc5)cc4C3)CN2C1=O [AR00345096, (1S,4R,6S,14S,18R)-5-(2-Imidazol-1-yl-ethoxy)-1,3-dihydro-isoindole-2-carboxylic acid 14-tert-butoxycarbonylamino-4-cyclopropanesulfonylaminocarbonyl-2,15-dioxo-3,16-diaza-tricyclo[14.3.0.0^4,6]nonadec-7-en-18-yl ester]",< 100,< 100,–
"Cn1c(C(=O)O)ccc1S(=O)(=O)NC(=O)[C@@]12C[C@H]1/C=C\CCCCC[C@H](NC(=O)OC(C)(C)C)C(=O)N1C[C@H](OC(=O)N3Cc4ccccc4C3)C[C@H]1C(=O)N2 [AR00364266, (1S,4R,6S,14S,18R)-1,3-Dihydro-isoindole-2-carboxylic acid 14-tert-butoxycarbonylamino-4-(5-carboxy-1-methyl-1H-pyrrole-2-sulfonylaminocarbonyl)-2,15-dioxo-3,16-diaza-tricyclo[14.3.0.0^4,6]nonadec-7-en-18-yl ester]",< 1000,< 100,–
"CC(C)(C)OC(=O)N[C@H]1CCCCC/C=C\[C@@H]2C[C@@]2(C(=O)NS(=O)(=O)C2CC2)NC(=O)[C@@H]2C[C@@H](OC(=O)N3Cc4ccc(OCCn5cccn5)cc4C3)CN2C1=O [AR00364924, (1S,4R,6S,14S,18R)-5-(2-Pyrazol-1-yl-ethoxy)-1,3-dihydro-isoindole-2-carboxylic acid 14-tert-butoxycarbonylamino-4-cyclopropanesulfonylaminocarbonyl-2,15-dioxo-3,16-diaza-tricyclo[14.3.0.0^4,6]nonadec-7-en-18-yl ester]",< 100,< 100,–
